pIC50: −log10 of the molar value. Where a SMILES comes first, the peptide text is derived from it.
Each compound was assayed against HLA A*3001 (Homo sapiens, UniProt P04439, D140H/D185E/E176W/F33S/G80R/H175R/K168Q/R138E/R41S) (assay: biochemical).
Type: binding

HLA A*3001, sequence (P04439 25-365 limits assumed, stated change not applied): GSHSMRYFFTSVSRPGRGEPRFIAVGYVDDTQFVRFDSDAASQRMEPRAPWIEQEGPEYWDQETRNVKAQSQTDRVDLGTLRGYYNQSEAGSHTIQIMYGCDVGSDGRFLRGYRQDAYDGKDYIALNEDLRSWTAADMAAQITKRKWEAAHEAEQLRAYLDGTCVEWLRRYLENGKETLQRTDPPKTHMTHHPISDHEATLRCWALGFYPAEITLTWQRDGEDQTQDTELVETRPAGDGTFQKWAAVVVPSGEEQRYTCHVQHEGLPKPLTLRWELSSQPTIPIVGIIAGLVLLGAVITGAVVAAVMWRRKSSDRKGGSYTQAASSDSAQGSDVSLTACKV

Row | Compound | pIC50
1 | CC(C)[C@H](NC(=O)[C@H](CO)NC(=O)[C@H](C)NC(=O)[C@H](Cc1c[nH]cn1)NC(=O)[C@H](CC(N)=O)NC(=O)[C@H](Cc1ccccc1)NC(=O)[C@H](C)NC(=O)[C@@H](N)CCCCN)C(=O)N[C@@H](CCCCN)C(=O)O [3102.0118] (H-KAFNHASVK-OH) | 7.46
2 | CC[C@H](C)[C@H](NC(=O)[C@@H](NC(=O)[C@H](Cc1c[nH]c2ccccc12)NC(=O)[C@H](Cc1ccccc1)NC(=O)CNC(=O)[C@H](CO)NC(=O)[C@H](CCCNC(=N)N)NC(=O)[C@H](Cc1ccc(O)cc1)NC(=O)[C@@H](N)CCCNC(=N)N)[C@@H](C)CC)C(=O)O [3102.0085] (H-RYRSGFWII-OH) | 8.06
3 | CC(C)[C@H](NC(=O)[C@H](CO)NC(=O)[C@H](CCCNC(=N)N)NC(=O)[C@H](CCCCN)NC(=O)[C@H](CO)NC(=O)[C@H](CC(N)=O)NC(=O)[C@H](CCCNC(=N)N)NC(=O)[C@H](CC(N)=O)NC(=O)[C@@H](N)CCCCN)C(=O)O [3102.0025] (H-KNRNSKRSV-OH) | 7.48
4 | CSCC[C@H](N)C(=O)N[C@@H](CC(C)C)C(=O)N[C@@H](CCCNC(=N)N)C(=O)N[C@@H](Cc1ccccc1)C(=O)N[C@@H](C)C(=O)N[C@@H](CC(N)=O)C(=O)N1CCC[C@H]1C(=O)N[C@@H](CC(C)C)C(=O)N[C@@H](CO)C(=O)O [3102.0173] (H-MLRFANPLS-OH) | 9.77
5 | CC(C)C[C@H](NC(=O)[C@H](C)NC(=O)[C@@H](N)CO)C(=O)N[C@@H](Cc1ccc(O)cc1)C(=O)N[C@@H](CO)C(=O)N[C@@H](Cc1ccc(O)cc1)C(=O)N[C@@H](C)C(=O)N[C@@H](CO)C(=O)N[C@@H](C)C(=O)O [3102.0177] (H-SALYSYASA-OH) | 7.43
6 | CC(C)[C@H](NC(=O)[C@H](CO)NC(=O)[C@H](CCCNC(=N)N)NC(=O)[C@H](Cc1ccccc1)NC(=O)[C@H](CCCNC(=N)N)NC(=O)[C@H](Cc1ccccc1)NC(=O)[C@@H](N)CCCNC(=N)N)C(=O)N[C@@H](Cc1ccc(O)cc1)C(=O)NCC(=O)O [3102.0175] (H-RFRFRSVYG-OH) | 9.44
7 | CC[C@H](C)[C@H](NC(=O)[C@H](C)NC(=O)[C@H](CCCNC(=N)N)NC(=O)[C@@H](NC(=O)[C@@H](N)CCCNC(=N)N)[C@@H](C)O)C(=O)N[C@@H](CC(N)=O)C(=O)N[C@@H](CCCCN)C(=O)N[C@@H](Cc1ccc(O)cc1)C(=O)N[C@@H](CO)C(=O)O [3102.0141] (H-RTRAINKYS-OH) | 7.89
8 | CC[C@H](C)[C@H](NC(=O)[C@@H]1CCCN1C(=O)[C@H](C)NC(=O)[C@H](CO)NC(=O)[C@H](C)NC(=O)[C@@H]1CCCN1C(=O)[C@H](CCCCN)NC(=O)[C@@H](NC(=O)[C@@H](N)CCCNC(=N)N)[C@@H](C)O)C(=O)O [3102.0187] (H-RTKPASAPI-OH) | 9.96
9 | CC[C@H](C)[C@H](NC(=O)[C@H](C)NC(=O)[C@H](CO)NC(=O)[C@@H](NC(=O)[C@H](CO)NC(=O)[C@@H](NC(=O)[C@@H](N)CCCNC(=N)N)C(C)C)C(C)C)C(=O)N[C@@H](CC(C)C)C(=O)N[C@@H](CC(C)C)C(=O)O [3102.0061] (H-RVSVSAILL-OH) | 7.82
10 | CC[C@H](C)[C@H](NC(=O)[C@H](CC(=O)O)NC(=O)[C@H](CC(C)C)NC(=O)[C@H](Cc1ccccc1)NC(=O)[C@@H](N)CC(C)C)C(=O)N[C@@H](CCC(=O)O)C(=O)N[C@@H](CS)C(=O)N[C@@H](Cc1c[nH]cn1)C(=O)N[C@@H](Cc1ccccc1)C(=O)O [3102.0932] (H-LFLDIECHF-OH) | 7.72
11 | CC[C@H](C)[C@H](NC(=O)[C@H](CCC(N)=O)NC(=O)[C@H](CCC(=O)O)NC(=O)[C@H](CCCNC(=N)N)NC(=O)[C@H](C)NC(=O)[C@@H](N)CCCNC(=N)N)C(=O)N[C@@H](CO)C(=O)N[C@@H](CC(N)=O)C(=O)N[C@@H](CC(C)C)C(=O)O [3102.0237] (H-RAREQISNL-OH) | 8.57
12 | CC[C@H](C)[C@H](NC(=O)CNC(=O)[C@H](CC(C)C)NC(=O)[C@@H]1CCCN1C(=O)CNC(=O)[C@H](CCCNC(=N)N)NC(=O)[C@@H](NC(=O)[C@@H](N)CCCNC(=N)N)[C@@H](C)O)C(=O)N[C@@H](CC(C)C)C(=O)O [3102.0040] (H-RTRGPLGIL-OH) | 10.07
13 | CC[C@H](C)[C@H](NC(=O)[C@H](Cc1ccc(O)cc1)NC(=O)[C@H](CCC(N)=O)NC(=O)[C@H](Cc1ccc(O)cc1)NC(=O)[C@H](CCSC)NC(=O)[C@H](C)NC(=O)[C@H](C)N)C(=O)N[C@@H](Cc1ccccc1)C(=O)N[C@@H](CC(C)C)C(=O)O [3102.1350] (H-AAMYQYIFL-OH) | 8.12
14 | CC[C@H](C)[C@H](NC(=O)[C@H](CCCNC(=N)N)NC(=O)[C@H](CC(N)=O)NC(=O)[C@@H](NC(=O)[C@H](CCC(=O)O)NC(=O)[C@H](CCCCN)NC(=O)[C@@H](NC(=O)[C@@H](N)CCCCN)[C@@H](C)O)[C@@H](C)O)C(=O)N[C@@H](Cc1ccc(O)cc1)C(=O)O [3102.0056] (H-KTKETNRIY-OH) | 7.96
15 | CC[C@H](C)[C@H](NC(=O)[C@H](CC(N)=O)NC(=O)[C@@H](NC(=O)[C@H](CC(N)=O)NC(=O)[C@H](CCCCN)NC(=O)[C@H](CO)NC(=O)[C@@H](N)CCCCN)[C@@H](C)CC)C(=O)N[C@@H](CCC(=O)O)C(=O)N[C@H](C(=O)O)C(C)C [3102.0150] (H-KSKNINIEV-OH) | 9.49
16 | C[C@H](NC(=O)[C@H](C)NC(=O)[C@H](CC(N)=O)NC(=O)[C@H](CCC(N)=O)NC(=O)[C@@H]1CCCN1C(=O)[C@H](CC(=O)O)NC(=O)[C@H](CCCNC(=N)N)NC(=O)[C@@H](NC(=O)[C@@H](N)Cc1c[nH]cn1)[C@@H](C)O)C(=O)O [3102.0224] (H-HTRDPQNAA-OH) | 9.04
17 | CC[C@H](C)[C@H](NC(=O)[C@@H](N)CO)C(=O)N[C@@H](CCCNC(=N)N)C(=O)N[C@@H](CCCNC(=N)N)C(=O)N[C@@H](CC(N)=O)C(=O)N[C@@H](CC(C)C)C(=O)N[C@@H](C)C(=O)N[C@@H](CC(C)C)C(=O)N[C@@H](CCCCN)C(=O)O [3102.0157] (H-SIRRNLALK-OH) | 7.92
18 | CC(C)C[C@H](NC(=O)[C@H](CO)NC(=O)[C@@H](N)CCCCN)C(=O)N[C@@H](Cc1ccc(O)cc1)C(=O)N[C@@H](CO)C(=O)N[C@@H](Cc1c[nH]cn1)C(=O)N[C@@H](CCC(N)=O)C(=O)N[C@@H](CC(C)C)C(=O)N[C@H](C(=O)O)C(C)C [3102.0103] (H-KSLYSHQLV-OH) | 7.92
19 | C[C@@H](O)[C@H](NC(=O)[C@@H](N)CCCNC(=N)N)C(=O)N[C@@H](Cc1c[nH]cn1)C(=O)N[C@@H](Cc1ccccc1)C(=O)N[C@@H](CO)C(=O)N[C@@H](CCC(N)=O)C(=O)N1CCC[C@H]1C(=O)N[C@@H](CO)C(=O)NCC(=O)O [3102.0048] (H-RTHFSQPSG-OH) | 7.82
20 | CSCC[C@H](NC(=O)[C@H](CCCNC(=N)N)NC(=O)CNC(=O)[C@H](CO)NC(=O)[C@H](CO)NC(=O)[C@@H](NC(=O)[C@@H](N)CCCCN)[C@@H](C)O)C(=O)N1CCC[C@H]1C(=O)N[C@H](C(=O)O)C(C)C [3102.0119] (H-KTSSGRMPV-OH) | 8.70
21 | CC[C@H](C)[C@H](NC(=O)[C@H](Cc1ccccc1)NC(=O)[C@H](CCCCN)NC(=O)[C@H](Cc1ccc(O)cc1)NC(=O)[C@H](Cc1ccccc1)NC(=O)[C@H](C)NC(=O)[C@H](CCCCN)NC(=O)[C@@H](NC(=O)[C@@H](N)Cc1c[nH]cn1)C(C)C)C(=O)O [3102.0138] (H-HVKAFYKFI-OH) | 9.46
22 | CSCC[C@H](NC(=O)[C@H](CC(C)C)NC(=O)[C@@H](NC(=O)[C@@H](N)Cc1c[nH]cn1)C(C)C)C(=O)N[C@@H](Cc1c[nH]cn1)C(=O)N[C@@H](CO)C(=O)N1CCC[C@H]1C(=O)N[C@@H](CC(C)C)C(=O)N[C@H](C(=O)O)C(C)C [3102.0062] (H-HVLMHSPLV-OH) | 7.52
23 | CC(C)C[C@H](NC(=O)[C@H](CC(C)C)NC(=O)[C@H](CCCNC(=N)N)NC(=O)[C@@H](NC(=O)[C@@H](N)CO)C(C)C)C(=O)N[C@@H](CC(N)=O)C(=O)N[C@@H](Cc1ccc(O)cc1)C(=O)N[C@@H](Cc1ccccc1)C(=O)N[C@@H](CCCCN)C(=O)O [3102.0158] (H-SVRLLNYFK-OH) | 9.62
24 | CSCC[C@H](N)C(=O)N[C@@H](CCC(N)=O)C(=O)N[C@@H](CCCCN)C(=O)N[C@@H](CS)C(=O)N[C@@H](Cc1ccc(O)cc1)C(=O)N[C@@H](Cc1ccccc1)C(=O)N[C@@H](CO)C(=O)N[C@@H](Cc1ccc(O)cc1)C(=O)N[C@@H](CCCCN)C(=O)O [3102.0090] (H-MQKCYFSYK-OH) | 9.28
25 | CC(C)C[C@H](NC(=O)[C@H](CCC(N)=O)NC(=O)CNC(=O)[C@H](CC(=O)O)NC(=O)[C@H](CCCNC(=N)N)NC(=O)[C@@H](NC(=O)[C@@H](N)[C@@H](C)O)C(C)C)C(=O)N[C@@H](CCC(=O)O)C(=O)N[C@H](C(=O)O)C(C)C [3102.0228] (H-TVRDGQLEV-OH) | 7.89
26 | CC(C)C[C@H](NC(=O)[C@H](Cc1ccc(O)cc1)NC(=O)[C@H](CO)NC(=O)[C@H](CO)NC(=O)[C@H](CO)NC(=O)[C@@H](NC(=O)[C@@H](N)CO)[C@@H](C)O)C(=O)N[C@@H](Cc1ccc(O)cc1)C(=O)N[C@@H](C)C(=O)O [3102.0171] (H-STSSSYLYA-OH) | 7.89
27 | CC[C@H](C)[C@H](NC(=O)[C@@H](NC(=O)[C@@H](N)CCSC)[C@@H](C)O)C(=O)N[C@@H](CCCNC(=N)N)C(=O)N[C@@H](CCC(=O)O)C(=O)N[C@@H](Cc1ccccc1)C(=O)N1CCC[C@H]1C(=O)N[C@@H](CCCNC(=N)N)C(=O)N[C@@H](CCCCN)C(=O)O [3102.0225] (H-MTIREFPRK-OH) | 8.80
28 | CC[C@H](C)[C@H](NC(=O)[C@@H](N)CCCNC(=N)N)C(=O)N[C@@H](CCCNC(=N)N)C(=O)N[C@@H](CCC(N)=O)C(=O)N[C@@H](CCC(N)=O)C(=O)N[C@@H](CC(C)C)C(=O)N1CCC[C@H]1C(=O)N[C@@H](CC(C)C)C(=O)N[C@@H](Cc1ccc(O)cc1)C(=O)O [3102.0107] (H-RIRQQLPLY-OH) | 7.89
29 | CC[C@H](C)[C@H](NC(=O)[C@@H]1CCCN1C(=O)CNC(=O)[C@H](CCSC)NC(=O)[C@H](CCCCN)NC(=O)[C@H](CCC(N)=O)NC(=O)[C@@H](N)CCCCN)C(=O)N[C@@H](Cc1ccc(O)cc1)C(=O)N[C@@H](C)C(=O)O [3102.0136] (H-KQKMGPIYA-OH) | 7.66
30 | CC(C)[C@H](NC(=O)[C@H](CO)NC(=O)[C@@H](NC(=O)[C@H](Cc1ccc(O)cc1)NC(=O)[C@@H](NC(=O)[C@H](Cc1ccccc1)NC(=O)[C@H](CCCCN)NC(=O)[C@H](CO)NC(=O)[C@H](C)N)C(C)C)C(C)C)C(=O)O [3102.0152] (H-ASKFVYVSV-OH) | 8.51

Source: article PMC2248166, “Quantitative peptide binding motifs for 19 human and mouse MHC class I molecules derived using positional scanning combinatorial peptide libraries” (Immunome Research, 2008)
